Source: US10426772B2, “Use of ergot alkaloids as an anthelmintic agent” (priority 2016, dated 2019)

Experiments:
S. mansoni [1] = assay: Curative efficacy against schistosome infection in mice; type: in vivo, Schistosoma mansoni; details: one week
Method: Assays testing the curative efficacy of compounds against schistosome infection were performed on mice 6 weeks after exposure to cerceria. Drugs were dosed as follows. Ergotamine (95 mg/kg) was solubilized in 50 μL DMSO and diluted in 200 μL trappsol-saline and delivered by intraperitoneal injection twice a day for one week. Praziquantel (50 mg/kg) was similarly solubilized and injected intraperitoneally once a day for one week. The negative control cohort was given twice daily injections of DMSO (50 μL) added to 200 μL trappsol-saline solution. Mice were weighed and euthanized at 49 days post infection. Worms were harvested and counted as in the hepatic shift assay. Spleen and livers were weighed, and a segment of intestine was excised from the most distal region of the rectum to 10 cm above the cecum. The small and large intestines were separated by cutting immediately above and below the cecum. Each was cut lengthwise to expose the lumen and thoroughly washed in NaCl (1.2%) to remove excrement. Intestines were laid flat with the intestinal mucosa facing upwards and clamped between two glass plates to allow visual inspection of eggs using a stereo microscope.
Mice were injected with vehicle control (dmso), the current frontline anthelmintic (praziquantel) or ergotamine twice daily for one week at starting 42 days post infection.
All animals were sacrificed 49 days post infection, and worms were harvested by dissection of the mesenteric vasculature, portal vein and liver. […] Schistosomes lay large numbers of eggs within the host mesenteric system, and these progress through stages of development over approximately 5 days which can be scored looking at samples of the intestinal mucosa (Pellegrino et al., 1965). Therefore, it is possible to visually determine whether drug treatment has arrested parasite egg laying by observing a lack of developing eggs. Sections of both the large and small intestines were examined and eggs were manually counted and scored according to developmental stage (representative stages of embryo development shown in FIG. 20H-I, top).

S. mansoni [2] = assay: Hepatic shift assay in infected mice; type: in vivo, Schistosoma mansoni; details: intraperitoneal, ergotamine 95, praziquantel 100, methylergometrine 50, lisuride 10, dihydroergotoxine 60 mg/kg, euthanized three hours later
Method: Female Swiss Webster mice were exposed to 200 S. mansoni cerceria (NMRI strain) at between 4-6 weeks old. For hepatic shift assays, infections were allowed to mature to 7 weeks, at which point mice were given test compounds by intraperitoneal injection and euthanized […]. Compounds were solubilized in 50 μL DMSO, and diluted in 200 μL 5% w/v trappsol (Cyclodextrin Technologies Development, THPB-p-31 g)+saline (NaCl 0.9%) solution. Immediately after being euthanized, mice were dissected to remove the liver from the portal vein, and the number of worms recovered from the portal vein, mesenteries and liver was recorded for each mouse.
Several experiments using a murine model of schistosomiasis were carried out in order to test the anthelmintic efficacy of Sm.5HTR ligands in vivo. First, the acute effect of drugs were assessed using a “heptic-shift” assay; mature parasites normally reside within the mesenteric vasculature, and upon exposure to anthelmintics they dislodge and are swept to the liver^12,13 where they may be cleared from the host^14 (FIG. 20B-F).
Given that the current anthelmintic therapy, praziquantel, disrupts worms and results in a rapid shift from the mesenteric vasculature to the liver (Melhorn et al., 1981) (FIG. 20B-F), it was hypothesized that Sm.5HTR ligands that disrupt parasite movement would cause a similar hepatic shift. Compounds were delivered by intraperitoneal injection and mice were euthanized three hours later in order to quantify the number of worms found in the mesentaries, portal vein or liver.

Sm.5HTR = Sm.5HTR (Schistosoma mansoni, UniProt G4V5G4); type: cell-based
Method: (§1) HEK293 cells (ATCC CRL-1573.3) were cultured in DMEM supplemented with 10% fetal bovine serum (FBS), penicillin (100 units/mL), streptomycin (100 μg/mL), and L-glutamine (290 μg/mL). Cells were transiently transfected (ViaFect, Promega) as per the manufacturer's protocol at a density of 2×10^6 cells per T-25 cell-culture flask. Cells were transfected with plasmids encoding GloSensor (Promega) and either Sm.5HTR, (Smp_126730, GenBank accession number KF444051.1) or Sm.5HTRL (KX150867), both GPCRs being codon optimized for mammalian expression, or Hs.5HT7a (GenBank accession number NM_000872.4, R&D Systems) subcloned into pCS2(−). Cell culture reagents were from Invitrogen. Epitope tagged constructs were used to verify expression, and untagged constructs used for all luminescence assays.
(§2) For assays performed on adherent cells, HEK-293 cells were transferred one day post transfection to 96 well, solid white plates (Corning, cat #3917) coated with 0.01% poly-L-lysine (Sigma Aldrich) at a density of 5×10^4 cells/well in DMEM supplemented with 1% dialyzed FBS (Gibco). After overnight culture (37° C./5% CO2), media was decanted and replaced with 100 μL/well HBSS supplemented with 0.1% BSA, 20 mM HEPES (pH 7.4) and GloSensor™ reagent. Plates were allowed to equilibrate at room temperature for two hours prior to performing luminescence assays (GloMax-Multi Detection System plate reader, Promega). Conditions for individual assays were described as per figure legends. The standard assay to detect changes in cAMP utilized the F22 sensor in media supplemented with IBMX (200 μM). Ligands were added at a concentration of 20× per well for experiments (i.e., 5 μl of drug solution added to 100 μL of cells). […] For the resazurin reduction assay for cellular viability, cells were incubated with resazurin (final concentration, 10 μM) and tested ligands with fluorescence measurements (560 nm excitation/590 nm emission) made at 1.5 hours intervals.
(§3) The protocol for screening is shown schematically in FIG. 5A. HEK293 cells transiently transfected with either the human 5HT7 receptor (Hs.5HT7R) or the schistosome receptor (Sm.5HTR) were exposed to test ligands in a 96-well plate format. […] Luminescence was then read at a fixed time point (t=60 minutes, FIG. 5A). Hits were assigned as compounds that evoked a ≥50% decrease in luminescence output at the fixed time sampling point (FIG. 5B).

Sm.5HTRL = Sm.5HTRL (Schistosoma mansoni, UniProt A0A173FEI8); assay: GloSensor cAMP assay, HEK293 cells transiently transfected with Sm.5HTRL; type: cell-based; details: antagonists 10 μM; 5-HT EC80 dose 0.8 μM (FIG. 8)
Method: as §1, §2

Hs.5HT7R = biological target: T1, Hs.5HT7R (Homo sapiens, UniProt P34969); assay: GloSensor cAMP assay, HEK293 cells transiently transfected with Hs.5HT7R; type: cell-based
T1 construct: host or cells: HEK293 (ATCC CRL-1573.3), transient, pCS2(−), co-transfected with GloSensor
Method: as §1, §2, §3

adult schistosomes = assay: Adult schistosome mobility assay (Example 1); type: cell-based, Schistosoma mansoni
[3] = tested on: S. mansoni schistosomules; assay: Schistosomule contractility assay; type: cell-based; details: Schistosoma mansoni, read-out: IC50, inhibition of 5-HT evoked contractions
Method: FIGS. 14A-14F. […] Effects of selected ligands on schistosomules. […] A contractile cycle is defined when a deviation of ≥20% of the average body length (dashed lines) occurs.
Biomphalaria glabrata (M-line) snails exposed to Schistosoma mansoni miracidia (Strain PR-1) were obtained from BEI Resources (Cat. number NR-21961) and cercaria were shed following exposure to light (1.5 hours). Cercaria were manually transformed into schistosomula by vortexing (3×45 seconds, each separated by 3 minutes on ice) and tails were removed by gradient centrifugation (24 mL Percoll, 4 mL 10×EMEM, 1.5 ml penicillin-streptomycin, 1 mL of 1M HEPES in 0.85% NaCl, 9.5 ml distilled water) at 500 g/15 minutes at 4° C. Supernatant containing tails was discarded, and schistosomules were resuspended in Basch media and incubated (37° C., 5% CO2) overnight before conducting mobility assays. For contractility experiments, somules were incubated in 5-HT free Basch media to resolve a basal contractility rate. […] Schistosomules were incubated in 24 well plates (about 200 schistosomules/0.5 mL media per well) for 30 minutes (37° C./5% CO2) prior to acquiring videos of schistosome movement (1 minute recordings/well) using a Nikon Coolpix 5700 camera affixed to a Nikon Eclipse TS100 microscope (10× objective). The WrmTrck plugin for ImageJ was used to quantify worm mobility (El-Shehabi et al., 2012). Briefly, the major axis of each schistosomule body length was extracted from the raw output of WrmTrck and an average length was determined for the duration of the recording. Contractions were quantified by determining the number of episodes during which the worm body length deviated from the average by over 20%. S. mansoni protocols were approved by the Iowa State University Institutional Biosafety Committee.

Sequence of Sm.5HTR (G4V5G4 entry or part of it): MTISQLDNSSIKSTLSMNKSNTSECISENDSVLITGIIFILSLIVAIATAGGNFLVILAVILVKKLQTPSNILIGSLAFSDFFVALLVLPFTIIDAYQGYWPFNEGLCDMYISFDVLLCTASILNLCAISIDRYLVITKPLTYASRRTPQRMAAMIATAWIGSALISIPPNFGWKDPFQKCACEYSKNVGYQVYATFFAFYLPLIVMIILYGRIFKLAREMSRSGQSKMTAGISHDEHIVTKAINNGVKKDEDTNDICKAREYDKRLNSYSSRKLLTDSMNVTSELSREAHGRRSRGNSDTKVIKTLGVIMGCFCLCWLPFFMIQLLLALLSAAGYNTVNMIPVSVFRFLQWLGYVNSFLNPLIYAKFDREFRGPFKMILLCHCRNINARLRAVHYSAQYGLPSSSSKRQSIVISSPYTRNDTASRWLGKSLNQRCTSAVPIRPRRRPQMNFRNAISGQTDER
T1 sequence (P34969 1-445 isoform P34969-2): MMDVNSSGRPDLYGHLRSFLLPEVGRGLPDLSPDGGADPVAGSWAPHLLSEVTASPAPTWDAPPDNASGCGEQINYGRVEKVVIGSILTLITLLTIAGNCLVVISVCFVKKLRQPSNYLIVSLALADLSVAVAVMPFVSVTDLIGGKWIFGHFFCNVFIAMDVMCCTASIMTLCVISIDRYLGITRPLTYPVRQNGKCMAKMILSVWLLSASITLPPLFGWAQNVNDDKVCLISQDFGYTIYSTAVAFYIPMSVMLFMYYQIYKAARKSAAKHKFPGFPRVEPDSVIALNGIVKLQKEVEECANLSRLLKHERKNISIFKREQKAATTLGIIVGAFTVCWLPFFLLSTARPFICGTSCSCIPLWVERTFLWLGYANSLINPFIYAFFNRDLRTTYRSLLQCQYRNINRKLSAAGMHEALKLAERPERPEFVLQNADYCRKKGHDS
Sequence of Sm.5HTRL (A0A173FEI8 entry or part of it): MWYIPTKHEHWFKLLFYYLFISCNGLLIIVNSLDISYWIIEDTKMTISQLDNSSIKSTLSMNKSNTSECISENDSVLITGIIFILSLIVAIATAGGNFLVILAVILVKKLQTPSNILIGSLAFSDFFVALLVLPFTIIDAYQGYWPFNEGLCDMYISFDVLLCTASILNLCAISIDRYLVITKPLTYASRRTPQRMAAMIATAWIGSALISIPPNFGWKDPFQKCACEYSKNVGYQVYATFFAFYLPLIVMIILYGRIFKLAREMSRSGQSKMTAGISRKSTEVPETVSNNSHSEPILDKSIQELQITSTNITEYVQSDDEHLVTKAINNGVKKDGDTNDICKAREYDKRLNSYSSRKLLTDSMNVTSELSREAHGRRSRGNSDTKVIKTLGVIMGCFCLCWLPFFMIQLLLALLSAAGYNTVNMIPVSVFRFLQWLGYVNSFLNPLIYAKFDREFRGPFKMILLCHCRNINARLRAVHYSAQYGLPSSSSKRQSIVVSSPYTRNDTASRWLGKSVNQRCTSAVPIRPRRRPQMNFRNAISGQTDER

Compound | protection from liver and spleen enlargement (S. mansoni [1]; infected mice, praziquantel 50 mg/kg i.p. once a day) | decrease in intestinal egg counts (S. mansoni [1]; mice, ergotamine 95 mg/kg twice a day, praziquantel 50 mg/kg once a day, i.p., versus vehicle control) [%] | % of worm burden found in the liver (S. mansoni [2]) [%] | modulation of Sm.5HTR receptor activity (Sm.5HTR; doses that would convey an antiparasitic effect, FIGS. 10A and E) | inhibition of 5-HT evoked cAMP generation through Sm.5HTRL (Sm.5HTRL) | effect on Hs.5HT7 (Hs.5HT7R; concentrations up to 50 μM) | potency (IC50) at Hs.5HT7R, lower right quadrant of FIG. 13 (Hs.5HT7R; inhibition of cAMP generation) | effect on 5-HT stimulated movement of adult worms (adult schistosomes; 5-HT 100 μM, male and female worms (FIG. 15G-I)) | effect on basal movement of adult worms (adult schistosomes; no 5-HT, male and female worms (FIG. 15D-F)) | IC50 [3] [nM] | selectivity Sm.5HTR versus Hs.5HT7R (IC50 (Hs.5HT7R)/IC50 (Sm.5HTR)), in words (Sm.5HTR; antagonism of 5-HT evoked cAMP, FIGS. 7, 12, 13) | potency (IC50) at Sm.5HTR, lower right quadrant of FIG. 13 (Sm.5HTR; inhibition of cAMP generation) | IC50 (Sm.5HTR; read-out: IC50, antagonism of 5-HT evoked cAMP generation at Sm.5HTR, 5-HT at EC80, F22 sensor, IBMX) [nM]
O=C(C1CCCCC1)N1CC(=O)N2CCc3ccccc3C2C1 (stereo not shown) [PZQ, praziquantel] | no significant protection from liver and spleen enlargement | 99 | 68.8±14.1 | did not reveal any modulation of receptor activity |  |  |  |  |  |  |  |  | 
COc1cc2c(cc1OC)[C@@H]1Cc3ccc(OC)c(OC)c3CN1CC2 [rotundine] |  |  |  |  | inhibited 5-HT evoked cAMP generation through Sm.5HTRL | lacking any effect | supra-μM potency | inhibited the 5-HT evoked increases in worm movement | markedly inhibited worm movements at rest | ≤ 1000 | clear selectivity for Sm.5HTR | sub-μM potency | 701 ± 207
